# Experimental data taken from US11414677B2, “Methods and compositions for performing continuous directed evolution” (Massachusetts Institute of Technology, priority 2017, dated 2022).
# B1: AdPol: high fidelity wild-type adenovirus type-5 DNA polymerase (protein, UniProt P04495 1-1198, looked up)
# DNA polymerase: MALVQAHRARRLHAEAPDSGDQPPRRRVRQQPTRAAPAPARARRRRAPAPSPGGSGAPPTSGGSPASPLLDASSKDTPAAHRPPRGTVVAPRGCGLLQAIDAATNQPLEIRYHLDLARALTRLCEVNLQELPPDLTPRELQTMDSSHLRDVVIKLRPPRADIWTLGSRGVVVRSTVTPLEQPDGQGQAAEVEDHQPNPPGEGLKFPLCFLVRGRQVNLVQDVQPVHRCQYCARFYKSQHECSARRRDFYFHHINSHSSNWWREIQFFPIGSHPRTERLFVTYDVETYTWMGAFGKQLVPFMLVMKFGGDEPLVTAARDLAANLGWDRWEQDPLTFYCITPEKMAIGRQFRTFRDHLQMLMARDLWSSFVASNPHLADWALSEHGLSSPEELTYEELKKLPSIKGIPRFLELYIVGHNINGFDEIVLAAQVINNRSEVPGPFRITRNFMPRAGKILFNDVTFALPNPRSKKRTDFLLWEQGGCDDTDFKYQYLKVMVRDTFALTHTSLRKAAQAYALPVEKGCCAYQAVNQFYMLGSYRSEADGFPIQEYWKDREEFVLNRELWKKKGQDKYDIIKETLDYCALDVQVTAELVNKLRDSYASFVRDAVGLTDASFNVFQRPTISSNSHAIFRQIVFRAEQPARSNLGPDLLAPSHELYDYVRASIRGGRCYPTYLGILREPLYVYDICGMYASALTHPMPWGPPLNPYERALAARAWQQALDLQGCKIDYFDARLLPGVFTVDADPPDETQLDPLPPFCSRKGGRLCWTNERLRGEVATSVDLVTLHNRGWRVHLVPDERTTVFPEWRCVAREYVQLNIAAKERADRDKNQTLRSIAKLLSNALYGSFATKLDNKKIVFSDQMDAATLKGITAGQVNIKSSSFLETDNLSAEVMPAFQREYSPQQLALADSDAEESEDERAPTPFYSPPSGTPGHVAYTYKPITFLDAEEGDMCLHTLERVDPLVDNDRYPSHLASFVLAWTRAFVSEWSEFLYEEDRGTPLEDRPLKSVYGDTDSLFVTERGHRLMETRGKKRIKKHGGNLVFDPERPELTWLVECETVCGACGADAYSPESVFLAPKLYALKSLHCPSCGASSKGKLRAKGHAAEGLDYDTMVKCYLADAQGEDRQRFSTSRTSLKRTLASAQPGAHPFTVTQTTLTRTLRPWKDMTLARLDEHRLLPYSESRPNPRNEEICWIEMP
# How the values were obtained:
# RFP.ΔAdPol.adenovirus = assay: Time course of antibiotic inhibition of adenoviral replication; format: cell-based, Adenovirus type 5; details: treatment initiated 24 h post-infection
# Description: FIGS. 47A-47B. Time-course of antibiotic-mediated inhibition of adenoviral infection. HEK293A cells expressing wild-type AdPol were infected with RFP.ΔAdPol.adenovirus and treated with either a) puromycin, or b) blasticidin at various time points post-infection (h.p.i.=hours post-infection). After 2 days, the infections were harvested and titered by flow cytometry. Titers are given in infectious units per milliliter (IU/mL), defined as the volume of adenoviral supernatant required to induce fluorescence in a cell as analyzed by flow cytometry. Dashed line represents the limit of detection (L.O.D) of the assay. Titers below this limit are inaccurate due to the percentage of infected cells being below the 1% error threshold of flow cytometry.
# RFP.ΔAdPol.adenovirus (TABLE 16) was used to infect a 24-well plate of wild-type AdPol cells (150,000 cells/well) (TABLE 17) at MOI=1, and either blasticidin or puromycin was added at various time points following the infection. Viral supernatants were harvested ˜48 h post-infection, and titered by flow cytometry as described above.
# HEK293A cells = assay: Resazurin assay to assess acute toxicity of common tissue culture antibiotics; format: cell-based, human; details: two-day treatment
# Description: FIGS. 46A-46D. Resazurin assay to assess acute toxicity of common tissue culture antibiotics. HEK293A cells were treated for two days with either G418 (FIG. 46A), puromycin (FIG. 46B), blasticidin (FIG. 46C), or hygromycin (FIG. 46D), and cell viability was analyzed by resazurin fluorescence.
# A 96-well plate was seeded with HEK293A cells (˜15,000) and treated with either puromycin HCl (Corning), Hygromycin B (Thermo Fisher), Blasticidin S HCl (Thermo Fisher), or G418 (Enzo). Two days later, 10 μL of 0.1 mg/mL resazurin (MilliporeSigma) was added and incubated for 1.5 h. Media was transferred to a fresh 96-well plate and fluorescence was analyzed on a Bio-Tek Synergy H1 Hybrid Microplate Reader.
# [1] = system: 1:10 mixture of tTA.mCherry.ΔAdPol.adenovirus and CFP.GFP.ΔAdPol.adenovirus; assay: Enrichment of tTA-expressing adenovirus by blasticidin selection in TRE3G.blastR cells; format: cell-based, Adenovirus type 5; details: 20 μM blasticidin, added 10 h post-infection
# Description: FIG. 49. Enrichment of adenoviruses encoding positive BOI variants by antibiotic selection. TRE3G.blastR cells were infected with a 1:10 mixture of ΔAdPol.adenovirus encoding either tTA (+tTA) or CFP (−tTA) and treated with blasticidin 10 h post-infection. Two days post-infection, adenoviruses were harvested and titered by flow cytometry. Titers are given in infectious units per milliliter (IU/mL), defined as the volume of adenoviral supernatant required to induce fluorescence in a cell as analyzed by flow cytometry. Dashed line represents the limit of detection (L.O.D) of the assay. Titers below this limit are inaccurate due to the percentage of infected cells being below the 1% error threshold of flow cytometry.
# A 1:10 mixture of tTA.mCherry.ΔAdPol.adenovirus and CFP.GFP.ΔAdPol.adenovirus (TABLE 16) was used to infect a 24-well plate of TRE3G.blastR cells (150,000 cells/well) (TABLE 17) at MOI=0.7, and blasticidin was added 10 h post-infection. Viral supernatants were harvested ˜48 h post-infection, and titered by flow cytometry as described above.
# [2] = system: ΔAdPol.adenovirus encoding either tTA or RFP; assay: tTA-induced resistance to antibiotic inhibition of adenoviral replication; format: cell-based, Adenovirus type 5; details: treatment 10 h post-infection
# Description: FIGS. 48A-48D. tTA-induced resistance to antibiotic mediated inhibition of adenoviral infection. Either wild-type AdPol cells, TRE3G.puroR cells, or TRE3G.blastR cells were infected with ΔAdPol.adenovirus encoding either tTA (+tTA) or RFP (−tTA). Ten hours post-infection, wild-type AdPol cells were treated with either puromycin (FIG. 48A) or (FIG. 48B) blasticidin, TRE3G.puroR cells were treated with puromycin (FIG. 48C), and TRE3G.blastR cells were treated with blasticidin (FIG. 48D). After 2, days, the infections were harvested and titered by flow cytometry. Titers are given in infectious units per milliliter (IU/mL), defined as the volume of adenoviral supernatant required to induce fluorescence in a cell as analyzed by flow cytometry. Dashed line represents the limit of detection (L.O.D) of the assay. Titers below this limit are inaccurate owing to the percentage of infected cells being below the 1% error threshold of flow cytometry.
# Either RFP.ΔAdPol.adenovirus, or tTA.mCherry.ΔAdPol.adenovirus (TABLE 16) was used to infect a 24-well plate of either wild-type AdPol cells, TRE3G.puroR cells, or TRE3G.blastR cells (150,000 cells/well) (TABLE 17) at MOI=1, and either puromycin or blasticidin was added 10 h post-infection. Viral supernatants were harvested ˜48 h post-infection, and titered by flow cytometry as described above.
# tTAwt.mCherry adenovirus [3] = assay: Doxycycline dose response of tTAwt.mCherry adenovirus titer in TRE3G.AdProt cells; format: cell-based, Adenovirus type 5; details: synchronous infection, various dox concentrations
# Description: FIG. 36. Dose response of tTA-mCherry titer when treated with doxycycline. […] Titer is given in “infectious units per mL” (IU/mL), which is defined as the number of viruses per mL that are able to elicit a fluorescent signal in cells when analyzed by flow cytometry.
# A semi-confluent dish of TRE3G.AdProt cells (˜160,000 cells) (TABLE 13) was infected with tTAwt. mCherry adenovirus (multiplicity of infection ˜2.5) (TABLE 12). After 3 h, the cells were washed twice, and fresh tet-approved media (Takara Bio) supplemented with various concentrations of dox was added. 5 days later, the virus lysates were harvested and viral titers were analyzed by flow cytometry.
# tTAwt.mCherry adenovirus [4] = format: cell-based, Adenovirus type 5
# Description: FIGS. 21A-21C. FIG. 21A. […] HEK293A cells stably encoding the gene for adenoviral protease (AdProt) under control of the endogenous tTA operator are infected by an initial ratio of 1:100 or 1:1,000 tTAwt.mCherry to tTAmut.GFP viruses. Viral media was serially passaged onto a new plate of cells for three rounds. The viral populations were then determined via flow cytometry. FIG. 21B. Quantification of flow cytometry data from the competition experiment. […] The initial ratio of the 1:1,000 sample (labeled N.D.; not detectable) was not experimentally quantifiable owing to the low amount of tTAwt.mCherry adenovirus present, and was therefore derived by dilution of the 1:100 initial ratio. For raw flow cytometry data, see FIG. 26 and FIG. 27. FIG. 21C. […]
# Adenoviral titers were determined through flow cytometry. […] 2-3 days post-infection, cells were washed once with media, stained with 0.2 μg/mL DAPI, and then analyzed on a BD LSR II Analyzer for fluorescent protein expression. Infectious titers were determined by measuring the percentage of cells infected by a known volume of virus. To minimize counting cells that were infected by more than one virus and to minimize any background fluorescence, data were only considered if they fell within the linear range, which typically encompassed samples where 1-10% of cells were infected. […]
# [5] = system: AdGLΔPol adenoviral genome; details: high fidelity deep sequencing by Sanjuán and co-workers (Risso-Ballester et al. 2016); cited from earlier work
molecule,measurement,setting,value
CN(CC[C@H](N)CC(=O)N[C@H]1C=C[C@H](n2ccc(N)nc2=O)O[C@@H]1C(=O)O)C(=N)N [blasticidin],inhibition of adenoviral replication,RFP.ΔAdPol.adenovirus,Neither puromycin nor blasticidin were able to inhibit adenoviral replication
same,dynamic range of inhibitory concentrations,HEK293A cells,over two orders of magnitude
same,acute toxicity (cell viability by resazurin fluorescence),HEK293A cells; various concentrations,completely toxic
same,drop of CFP.ΔAdPol.adenovirus titer,[1],over 100 fold
same,tTA.mCherry.ΔAdPol.adenovirus titer,[1],remained steady
same,effect on RFP.ΔAdPol.adenovirus,[2]; TRE3G.blastR cell line,still inhibited
same,effect on tTA.ΔAdPol.adenovirus,[2]; TRE3G.blastR cell line,completely resistant to blasticidin treatment
same,effect on ΔAdPol.adenovirus replication,[2]; wild-type AdPol cell line,inhibited both RFP-expressing and tTA-expressing ΔAdPol.adenovirus replication
"C[C@H]1c2cccc(O)c2C(=O)C2=C(O)[C@]3(O)C(=O)C(C(N)=O)=C(O)[C@@H](N(C)C)[C@@H]3[C@@H](O)[C@@H]21 [dox, doxycycline]",modulation of adenoviral titers,tTAwt.mCherry adenovirus [3],~10 fold
same,decrease in viral titer,tTAwt.mCherry adenovirus [4],~10 fold
B1,estimated mutation rate,[5],~1.3×10^−7 mutations per base per viral passage
